Measured values reported in the NIST ThermoML archive (doi:10.1021/je101012n).
Numbers after ± are expanded uncertainties.

Assay: mn = molality of the nth substance listed, in mol/kg
Conditions: 101 kPa, Liquid, Alternating current cell with electrodes

O=[N+]([O-])[O-].O=[N+]([O-])[O-].[Zn+2] [nitric acid, zinc salt] + O
electrical conductivity [S/m]
Conditions | 278.15 K | 283.15 K | 298.15 K | 308.15 K | 318.15 K | 343.15 K | 363.15 K
m1 = 8.7e-05 | 0.001368 ± 5e-06 | 0.001579 ± 6e-06 | 0.002248 ± 9e-06 | 0.002744 ± 1.1e-05 | 0.003188 ± 1.3e-05 | 0.004549 ± 1.8e-05 | 0.00575 ± 2.3e-05
m1 = 0.00127 | 0.01814 ± 7e-05 | 0.02081 ± 8e-05 | 0.02942 ± 0.00012 | 0.03606 ± 0.00014 | 0.04205 ± 0.00017 | 0.06014 ± 0.00024 | 0.07615 ± 0.0003
m1 = 0.00874 | 0.1162 ± 0.0005 | 0.1334 ± 0.0005 | 0.1891 ± 0.0008 | 0.2299 ± 0.0009 | 0.2687 ± 0.0011 | 0.383 ± 0.0015 | 0.4824 ± 0.0019
m1 = 0.1275 | 1.391 ± 0.0056 | 1.592 ± 0.0064 | 2.217 ± 0.0089 | 2.658 ± 0.011 | 3.118 ± 0.013 | 4.402 ± 0.018 | 5.442 ± 0.022
m1 = 0.3325 | 3.111 ± 0.012 | 3.653 ± 0.015 | 4.931 ± 0.02 | 5.906 ± 0.024 | 6.986 ± 0.028 | 9.937 ± 0.04 | 11.83 ± 0.047

O=C([O-])O.[K+] [potassium bicarbonate] + O
electrical conductivity [S/m]
Conditions | 278.15 K | 283.15 K | 298.15 K | 308.15 K | 318.15 K | 343.15 K | 363.15 K
m1 = 0.001 | 0.007403 ± 3e-05 | 0.00834 ± 3e-05 | 0.01179 ± 5e-05 | 0.01416 ± 5.7e-05 | 0.01673 ± 7e-05 | 0.02401 ± 0.0001 | 0.03038 ± 0.00012
m1 = 0.00992 | 0.0687 ± 0.0003 | 0.07877 ± 0.00032 | 0.1107 ± 0.0004 | 0.1335 ± 0.0005 | 0.1573 ± 0.0006 | 0.2237 ± 0.0009 | 0.2794 ± 0.0011
m1 = 0.09998 | 0.6141 ± 0.0025 | 0.7003 ± 0.0028 | 0.9852 ± 0.0039 | 1.176 ± 0.0047 | 1.383 ± 0.0055 | 1.963 ± 0.0079 | 2.446 ± 0.0098
m1 = 0.5001 | 2.664 ± 0.011 | 3.031 ± 0.012 | 4.206 ± 0.017 | 5.066 ± 0.02 | 5.94 ± 0.024 | 8.391 ± 0.034 | 10.49 ± 0.042
m1 = 0.9999 | 4.748 ± 0.019 | 5.358 ± 0.021 | 7.365 ± 0.029 | 8.802 ± 0.035 | 10.31 ± 0.041 | 14.3 ± 0.057 | 17.93 ± 0.072

[Br-].[K+] [potassium bromide] + O
electrical conductivity [S/m]
Conditions | 278.15 K | 283.15 K | 298.15 K | 308.15 K | 318.15 K | 343.15 K | 363.15 K
m1 = 9.9e-05 | 0.0009344 ± 3.7e-06 | 0.001066 ± 4e-06 | 0.001469 ± 6e-06 | 0.00175 ± 7e-06 | 0.002072 ± 8e-06 | 0.002896 ± 1.2e-05 | 0.003522 ± 1.4e-05
m1 = 0.000975 | 0.009114 ± 3.6e-05 | 0.01037 ± 4e-05 | 0.01441 ± 6e-05 | 0.01716 ± 7e-05 | 0.02007 ± 8e-05 | 0.02802 ± 0.00011 | 0.0343 ± 0.00014
m1 = 0.00987 | 0.08994 ± 0.00036 | 0.1022 ± 0.0004 | 0.1417 ± 0.0006 | 0.1689 ± 0.0007 | 0.1974 ± 0.0008 | 0.2761 ± 0.0011 | 0.3376 ± 0.0014
m1 = 0.09755 | 0.8252 ± 0.0033 | 0.9355 ± 0.0037 | 1.29 ± 0.0052 | 1.535 ± 0.0061 | 1.787 ± 0.0071 | 2.491 ± 0.01 | 2.952 ± 0.012
m1 = 1.21 | 8.409 ± 0.034 | 9.363 ± 0.037 | 12.45 ± 0.05 | 14.54 ± 0.058 | 16.72 ± 0.067 | 22.46 ± 0.09 | 26.28 ± 0.11

O=C([O-])[O-].[K+].[K+] [potassium carbonate] + O
electrical conductivity [S/m]
Conditions | 278.15 K | 283.15 K | 298.15 K | 308.15 K | 318.15 K | 343.15 K | 363.15 K
m1 = 0.00132 | 0.02129 ± 9e-05 | 0.02471 ± 0.0001 | 0.03642 ± 0.00015 | 0.0439 ± 0.00018 | 0.05331 ± 0.00021 | 0.07921 ± 0.00032 | 0.09755 ± 0.00039
m1 = 0.01048 | 0.1568 ± 0.0006 | 0.1809 ± 0.0007 | 0.2575 ± 0.001 | 0.3146 ± 0.0013 | 0.3758 ± 0.0015 | 0.5522 ± 0.0022 | 0.6987 ± 0.0028
m1 = 0.1319 | 1.589 ± 0.0064 | 1.815 ± 0.0073 | 2.542 ± 0.01 | 3.054 ± 0.012 | 3.59 ± 0.014 | 5.098 ± 0.02 | 6.345 ± 0.025
m1 = 0.3525 | 3.8 ± 0.015 | 4.305 ± 0.017 | 5.942 ± 0.024 | 7.115 ± 0.029 | 8.319 ± 0.033 | 11.6 ± 0.046 | 14.31 ± 0.057

[Cl-].[K+] [potassium chloride] + O
electrical conductivity [S/m]
Conditions | 278.15 K | 283.15 K | 298.15 K | 308.15 K | 318.15 K | 343.15 K | 363.15 K
m1 = 0.0001 | 0.0009464 ± 3.8e-06 | 0.001074 ± 4e-06 | 0.001487 ± 6e-06 | 0.001786 ± 7e-06 | 0.002105 ± 8e-06 | 0.002969 ± 1.2e-05 | 0.003716 ± 1.5e-05
m1 = 0.001 | 0.009198 ± 3.7e-05 | 0.0105 ± 0.0001 | 0.01471 ± 6e-05 | 0.01773 ± 7e-05 | 0.0207 ± 0.0001 | 0.02897 ± 0.00012 | 0.03587 ± 0.00014
m1 = 0.01 | 0.0891 ± 0.0004 | 0.1014 ± 0.0004 | 0.1408 ± 0.0006 | 0.1688 ± 0.0007 | 0.1977 ± 0.0008 | 0.2761 ± 0.0011 | 0.3426 ± 0.0014
m1 = 0.1 | 0.8184 ± 0.0033 | 0.9292 ± 0.0037 | 1.283 ± 0.0051 | 1.532 ± 0.0061 | 1.788 ± 0.0072 | 2.471 ± 0.0099 | 3.086 ± 0.012
m1 = 0.5 | 3.875 ± 0.015 | 4.375 ± 0.018 | 5.92 ± 0.024 | 6.981 ± 0.028 | 8.107 ± 0.032 | 11.23 ± 0.045 | 13.48 ± 0.054
m1 = 1 | 7.203 ± 0.029 | 8.084 ± 0.032 | 10.86 ± 0.043 | 12.8 ± 0.051 | 14.77 ± 0.059 | 20.25 ± 0.081 | 24.58 ± 0.098

[F-].[K+] [potassium fluoride] + O
electrical conductivity [S/m]
Conditions | 278.15 K | 283.15 K | 298.15 K | 308.15 K | 318.15 K | 343.15 K | 363.15 K
m1 = 0.000325 | 0.002576 ± 1e-05 | 0.002933 ± 1.2e-05 | 0.004125 ± 1.7e-05 | 0.005036 ± 2e-05 | 0.005965 ± 2.4e-05 | 0.008448 ± 3.4e-05 | 0.01046 ± 4e-05
m1 = 0.00109 | 0.008262 ± 3.3e-05 | 0.009509 ± 3.8e-05 | 0.01357 ± 5e-05 | 0.01642 ± 7e-05 | 0.01929 ± 8e-05 | 0.02734 ± 0.00011 | 0.03426 ± 0.00014
m1 = 0.035 | 0.2417 ± 0.001 | 0.2829 ± 0.0011 | 0.3939 ± 0.0016 | 0.4778 ± 0.0019 | 0.5576 ± 0.0022 | 0.7954 ± 0.0032 | 0.9964 ± 0.004
m1 = 0.11 | 0.7375 ± 0.003 | 0.8455 ± 0.0034 | 1.195 ± 0.0048 | 1.445 ± 0.0058 | 1.692 ± 0.0068 | 2.409 ± 0.0096 | 3.004 ± 0.012
m1 = 0.52 | 3.023 ± 0.012 | 3.435 ± 0.014 | 4.804 ± 0.019 | 5.771 ± 0.023 | 6.801 ± 0.027 | 9.683 ± 0.039 | 11.86 ± 0.047
m1 = 0.99 | 5.272 ± 0.021 | 6.034 ± 0.024 | 8.275 ± 0.033 | 9.907 ± 0.04 | 11.75 ± 0.047 | 16.85 ± 0.067 | 20.13 ± 0.081

O=[N+]([O-])[O-].[K+] [potassium nitrate] + O
electrical conductivity [S/m]
Conditions | 278.15 K | 283.15 K | 298.15 K | 308.15 K | 318.15 K | 343.15 K | 363.15 K
m1 = 0.000103 | 0.0009389 ± 3.8e-06 | 0.001073 ± 4e-06 | 0.001486 ± 6e-06 | 0.001798 ± 7e-06 | 0.002048 ± 8e-06 | 0.00283 ± 1.1e-05 | 0.00348 ± 1.4e-05
m1 = 0.000997 | 0.008901 ± 3.6e-05 | 0.01015 ± 4e-05 | 0.01411 ± 6e-05 | 0.01701 ± 7e-05 | 0.01956 ± 8e-05 | 0.02717 ± 0.00011 | 0.0338 ± 0.00014
m1 = 0.01026 | 0.0874 ± 0.0004 | 0.09971 ± 0.0004 | 0.1385 ± 0.0006 | 0.1664 ± 0.0007 | 0.1919 ± 0.0008 | 0.2666 ± 0.0011 | 0.3287 ± 0.0013
m1 = 0.09972 | 0.7601 ± 0.003 | 0.8658 ± 0.0035 | 1.201 ± 0.0048 | 1.44 ± 0.0058 | 1.669 ± 0.0067 | 2.342 ± 0.0094 | 2.875 ± 0.011
m1 = 0.4093 | 2.815 ± 0.011 | 3.211 ± 0.013 | 4.407 ± 0.018 | 5.264 ± 0.021 | 6.162 ± 0.025 | 8.59 ± 0.034 | 10.45 ± 0.042
m1 = 0.7941 | 4.806 ± 0.019 | 5.474 ± 0.022 | 7.428 ± 0.03 | 8.831 ± 0.035 | 10.38 ± 0.042 | 14.63 ± 0.059 | 16.97 ± 0.068
